Tested on: high-grade glioma with subarachnoid extension
Test: treatment of patients with high-grade glioma with subarachnoid extension
Type: in vivo, human
Settings: responding patients; before the combined treatment, under bevacizumab alone, or when intrathecal CpG was resumed
Procedure: Four patients had high-grade glioma with subarachnoid extension. The treatment protocol of patients was as follows:
Subcutaneous injection of 0.3 mg/kg of CpG-ODN at D0, D7, D14, D21 et D28 (capped at 25 mg per injection, for patients>83 kg)
Intrathecal administration of CpG-ODN (7 mg) (in the cerebrospinal fluid) three times, with a two-week interval between each injection (D0, D14 and D28). (In 2 patients, the intrathecal injections were continued every 2 to 4 weeks for several months). (Other intrathecal injections of larger amounts of CpG-ODN (14 mg or 17 mg), again in three steps with a two weeks interval between each injection are currently tested, in other patients in a clinical trial.)
Intravenous perfusions of Avastin from 5 to 10 mg/kg every 2 weeks, started, depending on the cases, before, during or after the beginning of CpG-ODN.

| Substance | clinical outcome under single agent or on resuming the combination |
| --- | --- |
| 5′-TAAACGTTATAACGTTATGACGTCAT-3′ [CpG] | only a slight improvement |
| Bevacizumab: monoclonal antibody directed against VEGF, marketed by Roche under the name of Avastin | progression |
